Experimental data taken from patent US7713965B2, “7-substituted 3-carboxy-oxadiazino-quinolone derivatives, their preparation and their application as anti-bacterials” (Vetoquinol SA, priority 2008, dated 2010).

CN1COc2c(N3CCC(Nc4ncns4)C3)c(F)cc3c(=O)c(C(=O)O)cn1c23 (centres unmarked) (hydrate or solvate)
melting point: 285 °C (dec.)

Cc1nc(NC2CCN(c3c(F)cc4c(=O)c(C(=O)O)cn5c4c3OCN5C)C2)sc1C (centres unmarked) (hydrate or solvate)
melting point: 266 °C (dec.)

Cc1csc(NC2CCN(c3c(F)cc4c(=O)c(C(=O)O)cn5c4c3OCN5C)C2)n1 (centres unmarked) (hydrate or solvate)
melting point: 260 °C (dec.)

Cc1cnc(NC2CCN(c3c(F)cc4c(=O)c(C(=O)O)cn5c4c3OCN5C)C2)s1 (centres unmarked) (hydrate or solvate)
melting point: 265 °C (dec.)

Cc1cc(NC2CCN(c3c(F)cc4c(=O)c(C(=O)O)cn5c4c3OCN5C)C2)sn1 (centres unmarked) (hydrate or solvate)
melting point: 265 °C

Cc1cc(NC2CCN(c3c(F)cc4c(=O)c(C(=O)O)cn5c4c3OCN5C)C2)on1 (centres unmarked) (hydrate or solvate)
melting point: 244 °C (dec.)

Cc1cc(NC2CCN(c3c(F)cc4c(=O)c(C(=O)O)cn5c4c3OCN5C)C2)no1 (centres unmarked) (hydrate or solvate)
melting point: 263 °C (dec.)

CN1COc2c(N3CCC(CN(c4cnccn4)c4cnccn4)C3)c(F)cc3c(=O)c(C(=O)O)cn1c23 (centres unmarked) (hydrate or solvate)
melting point: 213 to 215 °C

CN1COc2c(N3CCC(NC4=NCCS4)C3)c(F)cc3c(=O)c(C(=O)O)cn1c23 (centres unmarked) (hydrate or solvate)
melting point: 265 to 267 °C

CN1COc2c(N3CCC(n4ccnn4)C3)c(F)cc3c(=O)c(C(=O)O)cn1c23 (centres unmarked) (hydrate or solvate)
melting point: 264 °C (dec.)

CN1COc2c(N3CCC(c4nnn[nH]4)C3)c(F)cc3c(=O)c(C(=O)O)cn1c23 (centres unmarked) (hydrate or solvate)
melting point: 250 °C (dec.)

CN1COc2c(N3CCC(NC(=O)c4ccco4)C3)c(F)cc3c(=O)c(C(=O)O)cn1c23 (centres unmarked) (hydrate or solvate)
melting point: 306 to 308 °C

CN1COc2c(N3CCC(NC(=O)CC(F)(F)F)C3)c(F)cc3c(=O)c(C(=O)O)cn1c23 (centres unmarked) (hydrate or solvate)
melting point: 292 °C (dec.)

CN1COc2c(N3CCC(NS(C)(=O)=O)C3)c(F)cc3c(=O)c(C(=O)O)cn1c23 (centres unmarked) (hydrate or solvate)
melting point: 261 °C (dec.)

CN1COc2c(N3CC(O)C(C)(C)C3)c(F)cc3c(=O)c(C(=O)O)cn1c23 (centres unmarked) (hydrate or solvate)
melting point: 281 °C (dec.)

CN1COc2c(N3CCC(O)(c4nccs4)C3)c(F)cc3c(=O)c(C(=O)O)cn1c23 (centres unmarked) (hydrate or solvate)
melting point: 252 to 253 °C

CN1COc2c(N3CCC(CNc4nccs4)C3)c(F)cc3c(=O)c(C(=O)O)cn1c23 (centres unmarked) (hydrate or solvate)
melting point: 268 to 270 °C

CO/N=C1\CCN(c2c(F)cc3c(=O)c(C(=O)O)cn4c3c2OCN4C)C1 (hydrate or solvate)
melting point: 241 to 243 °C

CN1COc2c(N3CCC(Nc4cnccn4)CC3)c(F)cc3c(=O)c(C(=O)O)cn1c23 (hydrate or solvate)
melting point: 239 °C (dec.)

CN1COc2c(N3CCC(Nc4ccccn4)CC3)c(F)cc3c(=O)c(C(=O)O)cn1c23 (hydrate or solvate)
melting point: 264 °C (dec.)

CN1COc2c(N3CCC(Nc4nccs4)CC3)c(F)cc3c(=O)c(C(=O)O)cn1c23 (hydrate or solvate)
melting point: 280 °C

CN1COc2c(N3CCC(NC(=O)c4ccco4)CC3)c(F)cc3c(=O)c(C(=O)O)cn1c23 (hydrate or solvate)
melting point: 293 to 295 °C

CN1COc2c(N3CCC(N4CCCCC4)CC3)c(F)cc3c(=O)c(C(=O)O)cn1c23 (hydrate or solvate)
melting point: 249 °C (dec.)

CN1COc2c(N3CCC(N4CCCC4)CC3)c(F)cc3c(=O)c(C(=O)O)cn1c23 (hydrate or solvate)
melting point: 267 to 269 °C

CN1COc2c(N3CC[C@H](NC(=O)C(F)(F)F)C3)ccc3c(=O)c(C(=O)O)cn1c23 (hydrate or solvate)
melting point: 310 °C (dec.)

CN1COc2c(N3CC[C@@H](Nc4nccs4)C3)ccc3c(=O)c(C(=O)O)cn1c23 (hydrate or solvate)
melting point: 275 °C (dec.)

Cc1nnc(NCC2CCN(c3c(F)cc4c(=O)c(C(=O)O)cn5c4c3OCN5C)C2)o1 (centres unmarked) (hydrate or solvate)
melting point: 240 °C

CC1Oc2c(N3CC[C@H](NC(=O)C(F)(F)F)C3)ccc3c(=O)c(C(=O)O)cn(c23)N1C (some centres unmarked) (hydrate or solvate)
melting point: 260 °C

CC1Oc2c(N3CC[C@@H](Nc4nccs4)C3)c(F)cc3c(=O)c(C(=O)O)cn(c23)N1C (some centres unmarked) (hydrate or solvate)
melting point: 224 to 226 °C

CN1n2cc(C(=O)O)c(=O)c3cc(F)c(N4CC[C@@H](Nc5nccs5)C4)c(c32)OC1(C)C (hydrate or solvate)
melting point: 235 to 237 °C

CC1Oc2c(N3CC[C@@H](Nc4nccs4)C3)ccc3c(=O)c(C(=O)O)cn(c23)N1C (some centres unmarked) (hydrate or solvate)
melting point: 260 to 263 °C

CN1n2cc(C(=O)O)c(=O)c3ccc(N4CC[C@@H](Nc5nccs5)C4)c(c32)OC1(C)C (hydrate or solvate)
melting point: 287 °C (dec.)

CC1Oc2c(N3C[C@H](N)C(C)(C)C3)c(F)cc3c(=O)c(C(=O)O)cn(c23)N1C (some centres unmarked) (hydrate or solvate)
melting point: 212 to 214 °C

CN1COc2c(N3CCC(CNC(=O)c4ccco4)C3)c(F)cc3c(=O)c(C(=O)O)cn1c23 (centres unmarked) (hydrate or solvate)
melting point: 278 to 280 °C

CN1n2cc(C(=O)O)c(=O)c3cc(F)c(N4C[C@H](N)C(C)(C)C4)c(c32)OC1(C)C (hydrate or solvate)
melting point: 255 to 257 °C

CN1COc2c(N3C[C@@H](Nc4nccs4)C(C)(C)C3)c(F)cc3c(=O)c(C(=O)O)cn1c23 (hydrate or solvate)
melting point: 265 °C (dec.)

CN1COc2c(N3C[C@H](Nc4nccs4)C(C)(C)C3)c(F)cc3c(=O)c(C(=O)O)cn1c23 (hydrate or solvate)
melting point: 271 to 273 °C

CN1COc2c(N3CC[C@@H](n4ccnn4)C3)c(F)cc3c(=O)c(C(=O)O)cn1c23 (hydrate or solvate)
melting point: 235 °C (dec.)

CN1COc2c(N3CC[C@H](n4ccnn4)C3)c(F)cc3c(=O)c(C(=O)O)cn1c23 (hydrate or solvate)
melting point: 235 °C (dec.)

Cc1cc(N[C@@H]2CCN(c3c(F)cc4c(=O)c(C(=O)O)cn5c4c3OCN5C)C2)on1 (hydrate or solvate)
melting point: 255 to 257 °C

Cc1cc(N[C@H]2CCN(c3c(F)cc4c(=O)c(C(=O)O)cn5c4c3OCN5C)C2)on1 (hydrate or solvate)
melting point: 255 to 257 °C

CN1COc2c(N3CC[C@H](Nc4ncc[nH]4)C3)c(F)cc3c(=O)c(C(=O)O)cn1c23 (hydrate or solvate)
melting point: 245 °C (dec.)

CN1COc2c(N3CC[C@@H](Nc4ncc[nH]4)C3)c(F)cc3c(=O)c(C(=O)O)cn1c23 (hydrate or solvate)
melting point: 225 °C (dec.)

CN(c1nccs1)[C@@H]1CCN(c2c(F)cc3c(=O)c(C(=O)O)cn4c3c2OCN4C)C1 (hydrate or solvate)
melting point: 222 to 224 °C

CN1COc2c(N3CC(N)C(c4nccs4)C3)c(F)cc3c(=O)c(C(=O)O)cn1c23 (centres unmarked) (hydrate or solvate)
melting point: 240 to 245 °C

CN1COc2c(N3CC[C@@H](Nc4cnccn4)C3)c(F)cc3c(=O)c(C(=O)O)cn1c23 (hydrate or solvate)
melting point: 255 °C (dec.)

Cc1nnc(NC2CCN(c3c(F)cc4c(=O)c(C(=O)O)cn5c4c3OCN5C)C2)o1 (centres unmarked) (hydrate or solvate)
melting point: 285 °C

CN1n2cc(C(=O)O)c(=O)c3cc(F)c(N4CC[C@H](NC(=O)C(F)(F)F)C4)c(c32)OC1(C)C (hydrate or solvate) [51]
melting point: 217 to 219 °C

CN1n2cc(C(=O)O)c(=O)c3cc(F)c(N4CC[C@H](NC(=O)C(F)(F)F)C4)c(c32)OC1(C)C (hydrate or solvate) [53]
melting point: 283 °C

CN1COc2c(N3CCC(CNc4cnccn4)C3)c(F)cc3c(=O)c(C(=O)O)cn1c23 (centres unmarked) (hydrate or solvate) [Example 1, 8-fluoro-3-methyl-6-oxo-9-[3-(pyrazin-2-ylaminomethyl)-pyrrolidin-1-yl]-2,3-dihydro-6H-1-oxa-3,3a-diaza-phenalene-5-carboxylic acid]
melting point: 238 to 240 °C

CN1COc2c(N3CCC(Nc4cnccn4)C3)c(F)cc3c(=O)c(C(=O)O)cn1c23 (centres unmarked) (hydrate or solvate) [Example 7]
melting point: 269 °C (dec.)

CN1COc2c(N3CCC(Nc4ccccn4)C3)c(F)cc3c(=O)c(C(=O)O)cn1c23 (centres unmarked) (hydrate or solvate) [Example 8]
melting point: 278 to 280 °C

CN1COc2c(N3CCC(Nc4nncs4)C3)c(F)cc3c(=O)c(C(=O)O)cn1c23 (centres unmarked) (hydrate or solvate) [Example 10, 8-Fluoro-3-methyl-6-oxo-9-[3-([1,3,4]thiadiazol-2-ylamino)-pyrrolidin-1-yl]-2,3-dihydro-6H1-oxa-3,3a-diaza-phenalene-5-carboxylic acid]
melting point: 320 °C (dec.)

CN1COc2c(N3CC[C@H](Nc4nccs4)C3)c(F)cc3c(=O)c(C(=O)O)cn1c23 (hydrate or solvate) [Example 18, 8-Fluoro-3-methyl-6-oxo-9-[(S)-3-(thiazol-2-ylamino)-pyrrolidin-1-yl]-2,3dihydro-6H-1-oxa-3,3a-diaza-phenalene-5-carboxylic acid]
melting point: 275 °C

CN1COc2c(N3CC[C@@H](Nc4nccs4)C3)c(F)cc3c(=O)c(C(=O)O)cn1c23 (hydrate or solvate) [Example 19, 8-Fluoro-3-methyl-6-oxo-9-[(R)-3-(thiazol-2-ylamino)-pyrrolidin-1-yl]-2,3-dihydro-6H-1-oxa-3,3a-diaza-phenalene-5-carboxylic acid]
melting point: 245 to 250 °C

CN1COc2c(N3CCC(NC(=O)C(F)(F)F)C3)c(F)cc3c(=O)c(C(=O)O)cn1c23 (centres unmarked) (hydrate or solvate) [Example 27, 8-Fluoro-3-methyl-6-oxo-9-[3-(2,2,2-trifluoro-acetylamino)-pyrrolidin-1-yl]-2,3-dihydro-6H-1-oxa-3,3a-diaza-phenalene-5-carboxylic acid]
melting point: 281 to 283 °C
